Assay results reported in patent US11028127B2, “Peptides capable of reactivating p53 mutants” (Yeda Research and Development Co. Ltd., priority 2013, dated 2021).
Primed or numbered codes have the meaning given here. Where no end group is shown, it is not given here. [ ]: non-standard residue; d: D form. The star is where a group is joined. FITC′ = fluorescein isothiocyanate label at the N-terminus; Myristoyl = CCCCCCCCCCCCCC(=O)*

Test system: Mut-p53
Assay: Total activity score over combined assays (Table 8)
Set-up: scale not given here
Details: for Activity Score: Table 10 summary of activity of the peptides tested; for AS (Activity Score): total score of Table 7; for Conformation, activity score / PCR, activity score: Table 8; for Conformation, activity score: the 14 score columns c4-c17 stand under the heads Conformation, DNA binding, Viability, PCR; for PCR, activity score: head span not shown
From the text: Several alternative and complementary methods to screen lead peptide candidates for conformational and functional effects on Mut-p53 were employed. For increased penetration of peptide across cell membranes each peptide contains 3-6 Arginine residues either as part of its sequence or added either at its N-terminus or its C-terminus. […] In-vitro based assays for evaluation were first performed, such as ELISA for assessment of p53 conformation and sequence-specific DNA binding of p53.

Row | Substance | Activity Score | AS (Activity Score) | Conformation, activity score | PCR, activity score
1 | pCAP153 (YWSAPQPATRRRRRRRRRRR) | 6 | 6 |  | 
2 | pCAP154 (LRCLLLLIGRVGRKKRRQRR) | 57 | 57 |  | 
3 | pCAP155 (IRGRIIRRRRRRRRRR) | 41 | 41 |  | 
4 | pCAP156 (VPHIHEFTRRRRRRRR) | 0 | 0 |  | 
5 | pCAP157 (SFILFIRRGRLGRKKRRQRRRP) | 37 | 37 |  | 
6 | pCAP158 (SFILFIRRGRLGRGDR) | 18 | 18 |  | 
7 | pCAP159 ([dR][dR][dR][dR][dR][dR][dR][dR]G[dL][dR]G[dR][dR][dI][dF][dL][dI][dF][dS]) | 53 | 53 |  | 
8 | pCAP160 ({FITC′}-SFILFIRRGRLGRRRRRRRRR) | 24 | 24 |  | 
9 | pCAP161 (HNAH) | 29 | 29 |  | 
10 | pCAP162 (SILT) | 2 | 2 |  | 
11 | pCAP163 (LTLS) | 4 | 4 |  | 
12 | pCAP164 (PLTLI) | 0 | 0 |  | 
13 | pCAP165 (SLLIG) | 0 | 0 |  | 
14 | pCAP166 (KPPER) | 0 | 0 |  | 
15 | pCAP167 (FILIR) | 5 | 5 |  | 
16 | pCAP168 (CRIIR) | 0 | 0 |  | 
17 | pCAP169 (SFILI) | 0 | 0 |  | 
18 | pCAP170 (IRILM) | 27 | 27 |  | 
19 | pCAP171 (PHHHS) | 0 | 0 |  | 
20 | pCAP172 (EFHS) | 0 | 0 |  | 
21 | pCAP173 (RLRRL) | 0 | 0 |  | 
22 | pCAP174 (HSTPHP) | 54 | 54 |  | 
23 | pCAP175 (DSPR) | 0 | 0 |  | 
24 | pCAP176 (HPWTH) | 0 | 0 |  | 

Row | Substance | Activity Score | AS (Activity Score) | Conformation, activity score | PCR, activity score
25 | pCAP177 (HFSHH) | 0 | 0 |  | 
26 | pCAP178 (RRVI) | 0 | 0 |  | 
27 | pCAP179 (ILVI) | 0 | 0 |  | 
28 | pCAP201 (HPTHPIRLRDNLTR) | 3 |  |  | 
29 | pCAP202 (DEDAKFRIRILMRR) | 8 |  | 3 | 
30 | pCAP203 (RRRHDSCHNQLQNYDHSTE) | 42 |  |  | 4
31 | pCAP204 (MSTESNMPRLIQNDDRRR) | 20 |  |  | 5
32 | pCAP205 (RCRNRKKEKTECLQKESEK) | 5 |  |  | 
33 | pCAP206 (RRRSHSQENVDQDTDE) | 19 |  |  | 6
34 | pCAP207 (RRSRSNEDVEDKTEDE) | 0 |  |  | 
35 | pCAP208 (RRIRSGGKDHAWTPLHENH) | 0 |  |  | 
36 | pCAP209 (HTPHPPVARTSPLQTPRR) | 0 |  |  | 
37 | pCAP210 (DEFERYRRFSTSRRR) | 29 |  | 3 | 6
38 | pCAP211 (PDSEPPRMELRRR) | 0 |  |  | 
39 | pCAP212 (Myristoyl-REEETILIIRRR) | 3 |  |  | 
40 | pCAP213 (RRIKMIRTSESFIQHIVS) | 5 |  |  | 
41 | pCAP214 (RRRESEQRSISLHHHST) | 2 |  |  | 
42 | pCAP215 (RRDTFDIRILMAF) | 0 |  |  | 
43 | pCAP216 (Myristoyl-HFNHYTFESTCRRRRC; cysteine pairing not given here) | 2 |  |  | 
44 | pCAP217 (HSTPHPPQPPERRR) | 2 |  |  | 
45 | pCAP218 (RREVTELHHTHEDRR) | 0 |  |  | 
46 | pCAP219 (SYRHYSDHWEDRRR) | 1 |  |  | 
47 | pCAP220 (STTHPHPGTSAPEPATRRR) | 6 |  |  | 
48 | pCAP221 (Myristoyl-RRKHNKHRPEPDSDER) | 60 |  | 3 | 6

Row | Substance | Activity Score | AS (Activity Score) | Conformation, activity score | PCR, activity score
49 | pCAP222 (RYEENNGVNPPVQVFESRTR) | 4 |  |  | 
50 | pCAP223 (SPWTHERRCRQR) | 0 |  |  | 
51 | pCAP224 (RRKSEPHSLSGGYQTGAD) | 2 |  |  | 
52 | pCAP225 (HTIHSISDFPEPPDRRRR) | 3 |  |  | 
53 | pCAP226 (DDSDNRIIRYRR) | 6 |  |  | 
54 | pCAP227 (Myristoyl-RRKILFIRLMHNKH) | 67 |  | 4 | 4
55 | pCAP228 (DEDAAHSTGHPHNSQHRRRR) | 3 |  |  | 
56 | pCAP229 (Myristoyl-PRVLPSPHTIHPSQYP) | 36 |  |  | 4
57 | pCAP230 (RKRGKSYAFFVPPSESKERW) | 63 |  | 3 | 6
58 | pCAP231 (HRTQSTLILFIRRGRET) | 9 |  |  | 
59 | pCAP232 (RSRSSHLRDHERTHT) | 0 |  |  | 
60 | pCAP233 (SHYHTPQNPPSTRRR) | 11 |  |  | 
61 | pCAP234 (HRTGHYTRCRQRCRSRSHNRH) | 2 |  |  | 
62 | pCAP235 (RSYSKLLCLLERLRISP) | 11 |  |  | 
63 | pCAP236 (RRRSTNTFLGEDFDQ) | 0 |  |  | 
64 | pCAP237 (HTIHVHYPGNRQPNPPLILQR) | 12 |  |  | 
65 | pCAP238 (TSPHPSLPRHIYPRR) | 6 |  |  | 
66 | pCAP239 (REGFYGPWHEQRRR) | 4 |  |  | 
67 | pCAP240 (TEQHHYIPHRRR) | 3 |  |  | 
68 | pCAP241 (LIGLSTSPRPRIIR) | 0 |  |  | 
69 | pCAP242 (Myristoyl-RRLIVRILKLPNPPER) | 67 |  | 4 | 6
70 | pCAP243 (RRCRSILPLLLLSR) | 2 |  |  | 
71 | pCAP244 (RRVSELQRNKHGRKHEL) | 5 |  |  | 
72 | pCAP245 (NHITNGGEEDSDCSSRRRRL) | 8 |  |  | 

Row | Substance | Activity Score | AS (Activity Score) | Conformation, activity score | PCR, activity score
73 | pCAP246 (RRRLDDEDVQTPTPSEYQN) | 5 |  |  | 
74 | pCAP247 (RRITEIRGRTGKTTLTYIED) | 6 |  |  | 
75 | pCAP248 (EIYGESGKTDEHALDTEYRR) | 0 |  |  | 
76 | pCAP249 (Myristoyl-DERTGKTRRYIDTRDIRR) | 6 |  |  | 
77 | pCAP251 (RLRRVILRSYHE) | 3 |  |  | 
78 | pCAP252 (RRVILRSYDGGHSTPHPD) | 0 |  |  | 
79 | pCAP253 (TGKTFVKRHLTEFEKKYR) | 0 |  |  | 
80 | pCAP254 (NHFDYDTIELDTAGEYSRRR) | 0 |  |  | 
81 | pCAP255 (DPEPPRYLPPPPERR) | 0 |  |  | 
82 | pCAP256 (RTLHGRRVILHEGGHSISDLK) | 2 |  |  | 
83 | pCAP257 (Myristoyl-HSSHHHPTVQHRR) | 8 |  |  | 
84 | pCAP258 (FLIGPDRLIRSR) | 23 |  |  | 4
85 | pCAP259 (Myristoyl-RTLIGIIRSHHLTLIRR) | 25 |  |  | 2
86 | pCAP260 (RRTFIRHRIDSTEVIYQDED) | 0 |  | 4 | 6
87 | pCAP261 (RRRQPLPSAPENEE) | 5 |  |  | 
88 | pCAP262 (ESKTGHKSEEQRLRRYR) | 0 |  |  | 
89 | pCAP263 (YDDEHNHHPHHSTHRRR) | 0 |  |  | 
90 | pCAP264 (RRRREVHTIHQHGIVHSD) | 0 |  |  | 
91 | pCAP265 (EEPDRQPSGKRGGRKRRSR) | 3 |  |  | 
92 | pCAP266 (HHRLSYFIVRRHSTHASR) | 2 |  |  | 
93 | pCAP267 (KRGGRKRRGGGHRLSYFIRR) | 28 |  | 3 | 2
94 | pCAP268 (TPSYGHTPSHHRRR) | 12 |  | 3 | 
95 | pCAP269 (DEPLPPPERRR) | 0 |  |  | 
96 | pCAP270 (SPHPPY) | 0 |  |  | 

Row | Substance | Activity Score | AS (Activity Score) | Conformation, activity score | PCR, activity score
97 | pCAP271 (SPHPPYSPHPPYSPHPPYP) | 0 |  |  | 
98 | pCAP272 (RRPHNLHHD) | 0 |  |  | 
99 | pCAP273 (RDFHTIHPSISRR) | 3 |  |  | 
100 | pCAP274 (LRDPHPPERRIR) | 0 |  |  | 
101 | pCAP275 (Myristoyl-MTYSDMPRRIITDEDRRR) | 6 |  |  | 
102 | pCAP276 (RRVDIHDGQRR) | 3 |  |  | 
103 | pCAP277 (DQPYPHRRIR) | 3 |  |  | 
104 | pCAP278 (RRYDTVIDDIEYRR) | 6 |  |  | 
105 | pCAP279 (RDTIERPEIRR) | 6 |  |  | 
106 | pCAP280 (Myristoyl-RYRRLILEIWRR) | 6 |  |  | 
107 | pCAP281 (Myristoyl-RDFILFIRRLGRR) | 3 |  |  | 
108 | pCAP282 (Myristoyl-RRPVAPDLRHTIHIPPER) | 43 |  | 4 | 3
109 | pCAP283 (RRPADQISYLHPPER) | 0 |  |  | 
110 | pCAP284 (Myristoyl-RHDTHNAHIRR) | 6 |  |  | 
111 | pCAP285 (RRDIIRHNAHS) | 4 |  |  | 
112 | pCAP286 (HDFHDYLERR) | 4 |  |  | 
113 | pCAP287 (RDFERTIVDI) | 8 |  |  | 
114 | pCAP288 (THDFDRLLRIRRR) | 6 |  |  | 
115 | pCAP289 (RHNHIRPDNQ) | 6 |  |  | 
116 | pCAP290 (RYKEPRITPRE) | 6 |  |  | 
117 | pCAP291 (DLQYDFPRIRR) | 0 |  |  | 
118 | pCAP292 (YDELYQKEDPHRRR) | 0 |  |  | 
119 | pCAP293 (RRIRIDPQHD) | 2 |  |  | 
120 | pCAP294 (FKPERFPQNDRRR) | 0 |  |  | 
